These results are taken from patent publication US10051857B2, “Formulation component” (SYNGENTA LIMITED, priority 2011, dated 2018).

What all share (type): in vivo
In test [1] the test system is Abutilon theophrasti (ABUTH). Kind of test: Glasshouse adjuvant test with fomesafen (Example 5). Conditions: fomesafen 60 or 120 g/ha, adjuvant 0.2% v/v or none, 200 l/ha; growth stage 12; mean over two rates, three replicates, 7, 14 and 21 days. As to the method:
(§1) Compound 1 (N, N-diethyl-3-methylbenzamide) was tested in a glasshouse against four weed species using the herbicide fomesafen. An agrochemical composition was prepared containing 0.2% v/v of the adjuvant in a track sprayer and was applied at a volume of 200 liters per hectare. Fomesafen was applied at either 60 or 120 grams of pesticide per hectare on each of the weed species. The weed species and their growth stage at spraying were Chenopodium album (CHEAL; growth stage 13/14), Abutilon theophrasti (ABUTH; growth stage 12), Setaria viridis (SETVI; growth stage 13), and Xanthium strumarium (XANST; growth stage 12).
(§2) Each spray test was replicated three times. The efficacy of the herbicide was assessed visually and expressed as a percentage of the leaf area killed. Samples were assessed at time periods of 7, 14 and 21 days following application. The results shown in Table 5 below are mean averages over the two rates of fomesafen, three replicates and the three assessment timings, and are compared to the efficacy of fomesafen in the absence of adjuvant.

Test [2] deals with Chenopodium album (CHEAL). The test is described as above. Conditions: fomesafen 60 or 120 g/ha, adjuvant 0.2% v/v or none, 200 l/ha; growth stage 13/14; mean over two rates, three replicates, 7, 14 and 21 days. As to the method: as §1, §2
The subject of test [3] is Setaria viridis (SETVI). Described as above. To be noted: fomesafen 60 or 120 g/ha, adjuvant 0.2% v/v or none, 200 l/ha; growth stage 13; mean over two rates, three replicates, 7, 14 and 21 days. As to the method:
as §1, §2

Test [4] relates to Xanthium strumarium (XANST). The description is as above. Conditions: fomesafen 60 or 120 g/ha, adjuvant 0.2% v/v or none, 200 l/ha; growth stage 12; mean over two rates, three replicates, 7, 14 and 21 days. As to the method:
as §1, §2

Test [5] concerns four weed species (CHEAL, ABUTH, SETVI, XANST). The test can be described thus: Glasshouse adjuvant test with fomesafen (Example 5), mean across species. Conditions: fomesafen 60 or 120 g/ha, adjuvant 0.2% v/v or none. As to the method:
as §1, §2

Test [6] has as its system Amaranthus tuberculatus (AMATE). Kind of test: Glasshouse adjuvant test with mesotrione (Example 6). Conditions: mesotrione 45 or 90 g/ha, adjuvant 0.2% v/v or none, 200 l/ha; growth stage 13/14; mean over two rates, three replicates, 7, 14 and 21 days. As to the method:
(§3) Compound 1 was tested in a glasshouse against four weed species using the herbicide mesotrione. A 20% w/w stock emulsion of compound 1 was prepared additionally containing 2% w/w Gohsenol® GL03 and 2% w/w Pluronic® PE10500 as surfactants. Using this, an agrochemical composition was prepared containing 0.2% v/v of the adjuvant in a track sprayer and was applied at a volume of 200 liters per hectare. Mesotrione was applied at either 45 or 90 grams of pesticide per hectare on each of the weed species. The weed species and their growth stage at spraying were Amaranthus tuberculatus (AMATE; growth stage 13/14), Brachiaria decumbens (BRADE; growth stage 13/14), Digitaria sanguinalis (DIGSA; growth stage 14), and Polygonum convolvulus (POLCO; growth stage 11/11.5).
(§4) Each test was replicated three times. The efficacy of the herbicide was assessed visually and expressed as a percentage of the leaf area killed. Samples were assessed at time periods of 7, 14 and 21 days following application. The results shown in Table 6 below are mean averages over the two rates of mesotrione, three replicates and the three assessment timings, and are compared to the efficacy of mesotrione in absence of adjuvant.

For test [7], the system named is Brachiaria decumbens (BRADE). The description is as above. To be noted: mesotrione 45 or 90 g/ha, adjuvant 0.2% v/v or none, 200 l/ha; growth stage 13/14; mean over two rates, three replicates, 7, 14 and 21 days. As to the method:
as §3, §4

Test [8] deals with Digitaria sanguinalis (DIGSA). The test is described as above. To be noted: mesotrione 45 or 90 g/ha, adjuvant 0.2% v/v or none, 200 l/ha; growth stage 14; mean over two rates, three replicates, 7, 14 and 21 days. As to the method:
as §3, §4

The test system of test [9] is Polygonum convolvulus (POLCO). Described as above. To be noted: mesotrione 45 or 90 g/ha, adjuvant 0.2% v/v or none, 200 l/ha; growth stage 11/11.5; mean over two rates, three replicates, 7, 14 and 21 days. As to the method:
as §3, §4

The subject of test [10] is four weed species (AMATE, BRADE, DIGSA, POLCO). Kind of test: Glasshouse adjuvant test with mesotrione (Example 6), mean across species. To be noted: mesotrione 45 or 90 g/ha, adjuvant 0.2% v/v or none.
The test system of test [11] is Setaria viridis (SETVI). Kind of test: Glasshouse adjuvant test with nicosulfuron (Example 7). To be noted: nicosulfuron 30 or 60 g/ha, adjuvant 0.2% v/v or none, 200 l/ha; growth stage 13; mean over two rates, three replicates, 14 and 21 days. As to the method:
Compound 1 was tested in a glasshouse against four weed species using the herbicide nicosulfuron. A 20% w/w stock emulsion of compound 1 was prepared additionally containing 2% w/w Gohsenol® GL03 and 2% w/w Pluronic® PE10500 as surfactants. Using this, an agrochemical composition was prepared containing 0.2% v/v of the adjuvant in a track sprayer and was applied at a volume of 200 liters per hectare. Nicosulfuron was applied at either 30 or 60 grams of pesticide per hectare on each of the weed species. The weed species and their growth stage at spraying were Abutilon theophrasti (ABUTH; growth stage 13), Chenopodium album (CHEAL; growth stage 14), Digitaria sanguinalis (DIGSA; growth stage 13), and Setaria viridis (SETVI; growth stage 13).
Each spray test replicated three times. The efficacy of the herbicide was assessed visually and expressed as a percentage of the leaf area killed. Samples were assessed at time periods of 14 and 21 days following application. The results shown in Table 7 below are mean averages over the two rates of nicosulfuron, three replicates and the two assessment timings, and are compared to the efficacy of nicosulfuron in the absence of an adjuvant.

The test system of test [12] is four weed species (ALOMY, AVEFA, LOLPE, SETVI). Kind of test: Glasshouse adjuvant test with pinoxaden (Example 8), mean across species. To be noted: pinoxaden 7.5 or 15 g/ha, adjuvant 0.2% v/v or none. As to the method:
The adjuvant shown in example 1 was tested in a glasshouse against four weed species in combination with the herbicide pinoxaden. A 20% w/w stock emulsion of compound 1 was prepared additionally containing 2% w/w Gohsenol® GL03 and 2% w/w Pluronic® PE10500 as surfactants. Using this, an agrochemical composition was prepared containing 0.2% v/v of the adjuvant in a track sprayer and was applied at a volume of 200 liters per hectare. Pinoxaden was applied at either 7.5 or 15 grams of pesticide per hectare on each of the weed species. The weed species and their growth stage at spraying were Alopecurus myosuroides (ALOMY; growth stage 13), Avena fatua (AVEFA; growth stage 12); Lolium perenne (LOLPE; growth stage 13), Setaria viridis (SETVI; growth stage 14).
Each spray test was replicated three times. The efficacy of the herbicide was assessed visually and expressed as a percentage of the leaf area killed. Samples were assessed at time periods of 14 and 21 days following application. The results shown in Table 8 are mean averages over the two rates of pinoxaden, three replicates and the two assessment timings, and are compared to the efficacy of pinoxaden in the absence of adjuvant.

Turning to `CCN(CC)C(=O)c1cccc(C)c1` [Compound 1, N, N-diethyl-3-methylbenzamide], the “Mean percentage kill ABUTH” value in [1] was 38.9%. Moreover, the “Mean percentage kill CHEAL” value in test [2] turned out to be 80.3%. The entries for the “Mean percentage kill SETVI” value in [3] and in [11] were 15.8% and 93.4%, respectively. For the same molecule, in test [4], the “Mean percentage kill XANST” value is on record as 35.6%. For the same molecule, the “Mean percentage kill, Mean across species” value turned out to be 42.6% in test [5], 54.1% in test [10] and 22.1% in test [12]. In addition, the “Mean percentage kill AMATE” value in test [6] was determined as 71.7%. Also, the “Mean percentage kill BRADE” value in [7] was determined as 28.9%. In addition, in test [8], the “Mean percentage kill DIGSA” value is recorded as 28.6%. The “Mean percentage kill POLCO” value in test [9] was 87.2%.
